ChEMBL document CHEMBL5370553, “Small-molecule LRRK2 inhibitors for PD therapy: Current achievements and future perspectives” (Eur J Med Chem, 2023)

Tests used:
[1] = molecular target: T1, von Hippel-Lindau disease tumor suppressor/Leucine-rich repeat serine/threonine-protein kinase 2 (Homo sapiens) (UniProt Q5S007+P40337); test: PROTAC activity at VHL/LRRK2 in human PBMC cells assessed as induction of degradation by measuring half life measured after 24 hrs by Western blot analysis; assay type: cell-based
T1 sequence (P40337 whole entry, looked up): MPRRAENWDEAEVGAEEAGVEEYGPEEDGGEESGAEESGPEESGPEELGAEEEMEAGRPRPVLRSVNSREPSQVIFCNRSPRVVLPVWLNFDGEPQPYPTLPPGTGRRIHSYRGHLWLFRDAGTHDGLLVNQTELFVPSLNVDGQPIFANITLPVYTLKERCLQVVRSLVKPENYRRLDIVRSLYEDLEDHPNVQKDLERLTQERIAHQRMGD
T1 sequence (Q5S007 whole entry, looked up): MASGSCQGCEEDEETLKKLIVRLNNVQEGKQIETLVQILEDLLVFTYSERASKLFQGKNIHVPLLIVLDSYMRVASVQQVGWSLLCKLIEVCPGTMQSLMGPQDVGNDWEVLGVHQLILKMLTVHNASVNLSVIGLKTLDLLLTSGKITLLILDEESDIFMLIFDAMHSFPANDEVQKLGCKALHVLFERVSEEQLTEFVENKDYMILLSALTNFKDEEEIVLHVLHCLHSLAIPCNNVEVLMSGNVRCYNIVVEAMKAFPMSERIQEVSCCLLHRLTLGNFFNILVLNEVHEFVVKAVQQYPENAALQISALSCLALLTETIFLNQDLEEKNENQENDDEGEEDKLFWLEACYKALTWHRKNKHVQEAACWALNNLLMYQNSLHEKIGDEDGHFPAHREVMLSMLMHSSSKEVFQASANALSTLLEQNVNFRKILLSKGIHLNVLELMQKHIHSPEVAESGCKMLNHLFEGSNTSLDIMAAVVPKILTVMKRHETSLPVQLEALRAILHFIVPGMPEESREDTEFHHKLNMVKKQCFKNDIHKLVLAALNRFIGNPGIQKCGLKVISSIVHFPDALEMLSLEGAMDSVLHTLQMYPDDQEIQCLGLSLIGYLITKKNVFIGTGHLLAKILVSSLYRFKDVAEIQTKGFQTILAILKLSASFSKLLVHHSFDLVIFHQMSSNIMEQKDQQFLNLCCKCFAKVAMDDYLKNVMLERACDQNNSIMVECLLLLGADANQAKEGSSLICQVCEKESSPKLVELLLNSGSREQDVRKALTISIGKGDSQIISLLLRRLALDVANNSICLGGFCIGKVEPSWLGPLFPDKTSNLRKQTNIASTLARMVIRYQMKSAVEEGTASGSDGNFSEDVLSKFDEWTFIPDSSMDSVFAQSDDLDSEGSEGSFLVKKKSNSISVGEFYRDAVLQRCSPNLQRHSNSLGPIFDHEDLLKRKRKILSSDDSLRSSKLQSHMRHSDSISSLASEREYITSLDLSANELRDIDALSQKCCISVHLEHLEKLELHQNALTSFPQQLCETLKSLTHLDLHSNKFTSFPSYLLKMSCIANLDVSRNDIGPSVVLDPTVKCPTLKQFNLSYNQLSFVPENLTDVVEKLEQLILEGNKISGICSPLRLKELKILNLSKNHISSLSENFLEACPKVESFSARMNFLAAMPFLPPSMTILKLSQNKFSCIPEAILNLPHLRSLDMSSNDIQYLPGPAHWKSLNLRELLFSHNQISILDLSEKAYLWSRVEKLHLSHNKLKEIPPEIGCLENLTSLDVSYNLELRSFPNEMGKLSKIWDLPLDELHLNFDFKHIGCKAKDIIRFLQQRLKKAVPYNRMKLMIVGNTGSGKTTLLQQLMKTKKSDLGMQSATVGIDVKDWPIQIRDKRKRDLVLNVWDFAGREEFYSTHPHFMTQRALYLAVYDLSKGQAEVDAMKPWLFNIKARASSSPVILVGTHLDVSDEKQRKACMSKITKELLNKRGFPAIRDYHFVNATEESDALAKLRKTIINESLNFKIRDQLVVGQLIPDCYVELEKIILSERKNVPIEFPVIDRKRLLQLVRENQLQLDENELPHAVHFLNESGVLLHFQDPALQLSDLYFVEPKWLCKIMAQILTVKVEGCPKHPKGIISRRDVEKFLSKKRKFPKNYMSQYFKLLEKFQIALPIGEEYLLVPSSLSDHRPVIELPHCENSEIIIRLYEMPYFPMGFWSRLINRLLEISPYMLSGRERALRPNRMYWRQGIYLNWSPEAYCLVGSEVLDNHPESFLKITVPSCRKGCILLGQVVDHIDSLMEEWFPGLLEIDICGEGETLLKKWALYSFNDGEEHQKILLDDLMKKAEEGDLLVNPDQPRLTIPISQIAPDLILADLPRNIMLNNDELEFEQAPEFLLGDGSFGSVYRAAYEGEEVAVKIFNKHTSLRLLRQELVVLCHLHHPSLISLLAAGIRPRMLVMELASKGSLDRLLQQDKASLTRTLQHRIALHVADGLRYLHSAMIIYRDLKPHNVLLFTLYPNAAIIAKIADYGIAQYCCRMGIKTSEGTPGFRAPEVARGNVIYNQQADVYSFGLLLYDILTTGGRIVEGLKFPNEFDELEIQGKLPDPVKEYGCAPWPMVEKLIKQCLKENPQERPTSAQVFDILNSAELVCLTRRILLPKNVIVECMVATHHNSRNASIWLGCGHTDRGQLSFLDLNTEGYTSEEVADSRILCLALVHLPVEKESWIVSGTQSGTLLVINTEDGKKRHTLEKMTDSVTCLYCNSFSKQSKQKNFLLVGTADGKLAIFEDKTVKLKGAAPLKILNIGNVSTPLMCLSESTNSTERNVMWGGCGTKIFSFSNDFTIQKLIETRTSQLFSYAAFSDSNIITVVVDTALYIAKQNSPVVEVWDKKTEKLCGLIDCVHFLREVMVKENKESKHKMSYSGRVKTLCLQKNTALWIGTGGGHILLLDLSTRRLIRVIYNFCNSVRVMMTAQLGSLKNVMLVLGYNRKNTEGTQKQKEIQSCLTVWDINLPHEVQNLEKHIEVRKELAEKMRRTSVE

[2] = test system: von Hippel-Lindau disease tumor suppressor/Leucine-rich repeat serine/threonine-protein kinase 2 (Homo sapiens), Q5S007+P40337 [G2019S]; test: PROTAC activity at VHL/LRRK2 G2019S mutant in human PBMC cells assessed as induction of degradation by measuring half life measured after 24 hrs by Western blot analysis; assay type: cell-based
[3] = molecular target: T1, von Hippel-Lindau disease tumor suppressor/Leucine-rich repeat serine/threonine-protein kinase 2 (Homo sapiens); test: PROTAC activity at VHL/LRRK2 in human PBMC cells assessed as reduction of protein degradation at 300 nM measured after 4 hrs by Western blot analysis relative to control; assay type: cell-based
[4] = test system: von Hippel-Lindau disease tumor suppressor/Leucine-rich repeat serine/threonine-protein kinase 2 (Homo sapiens), Q5S007+P40337 [G2019S]; test: PROTAC activity at VHL/LRRK2 G2019S mutant in human PBMC cells assessed as reduction of protein degradation at 300 nM measured after 4 hrs by Western blot analysis relative to control; assay type: cell-based
[5] = molecular target: T2, von Hippel-Lindau disease tumor suppressor/Leucine-rich repeat serine/threonine-protein kinase 2 (Homo sapiens, UniProt P40337+Q5S007); test: PROTAC activity at VHL/LRRK2 in human PBMC cells assessed as reduction of protein degradation measured after 24 hrs by Western blot; assay type: cell-based
T2 sequence (Q5S007 whole entry): as the sequence (Q5S007 whole entry, looked up) above
T2 sequence (P40337 whole entry): as the sequence (P40337 whole entry, looked up) above

[6] = molecular target: T3, von Hippel-Lindau disease tumor suppressor/Leucine-rich repeat serine/threonine-protein kinase 2 (Homo sapiens, UniProt P40337+Q5S007, G2019S); test: PROTAC activity at VHL/LRRK2 G2019S mutant in human PBMC cells assessed as reduction of protein degradation measured after 24 hrs by Western blot; assay type: cell-based
T3 sequence (P40337 whole entry, stated change not applied): as the sequence (P40337 whole entry, looked up) above
T3 sequence (Q5S007 whole entry G2019S, stated change not applied): as the sequence (Q5S007 whole entry, looked up) above, with G2019S counted along it

[7] = molecular target: T2, von Hippel-Lindau disease tumor suppressor/Leucine-rich repeat serine/threonine-protein kinase 2; test: PROTAC activity at VHL/LRRK2 in human PBMC cells assessed as reduction of protein degradation measured after 4 hrs by Western blot; assay type: cell-based
[8] = molecular target: T3, von Hippel-Lindau disease tumor suppressor/Leucine-rich repeat serine/threonine-protein kinase 2; test: PROTAC activity at VHL/LRRK2 G2019S mutant in human PBMC cells assessed as reduction of protein degradation measured after 4 hrs by Western blot; assay type: cell-based
[9] = Oral bioavailability in mouse at 30 mg/kg measured upto 8 hrs by LC-MS/MS analysis; assay type: ADME, organism-based; details: in vivo
[10] = molecular target: T4, Leucine-rich repeat serine/threonine-protein kinase 2 (Homo sapiens, UniProt Q5S007, G2019S); test: Inhibition of LRRK2 G2019S mutant (unknown origin)
T4 sequence (Q5S007 whole entry G2019S): as the sequence (Q5S007 whole entry, looked up) above, with G2019S counted along it

[11] = molecular target: T5, Leucine-rich repeat serine/threonine-protein kinase 2 (Homo sapiens, UniProt Q5S007); test: Inhibition of LRRK2 (unknown origin)
T5 sequence (Q5S007 whole entry): as the sequence (Q5S007 whole entry, looked up) above

[12] = molecular target: T5, Leucine-rich repeat serine/threonine-protein kinase 2; test: Inhibition of human full length LRRK2 using RLGRDKYKTLRQIRQ peptide as substrate by mass spectrometry analysis
[13] = molecular target: Protein cereblon/Leucine-rich repeat serine/threonine-protein kinase 2 (Mus musculus, UniProt Q5S006+Q8C7D2); test: PROTAC activity at CRBN/LRRK2 in mouse RAW264.7 cells assessed as reduction of protein degradation measured after 24 hrs by Western blot analysis; assay type: cell-based
[14] = molecular target: T5, Leucine-rich repeat serine/threonine-protein kinase 2; test: Inhibition of human LRRK2 measured after 60 mins by TR-FRET assay
[15] = molecular target: T4, Leucine-rich repeat serine/threonine-protein kinase 2; test: Inhibition of human LRRK2 G2019S mutant measured after 60 mins by TR-FRET assay
[16] = Oral bioavailability in rat; assay type: ADME, organism-based; details: in vivo
[17] = Half life in rat; assay type: ADME; details: in vivo
[18] = molecular target: T5, Leucine-rich repeat serine/threonine-protein kinase 2; test: Inhibition of GST20-tagged human LRRK2 using ERM as substrate measured after 90 mins in presence of ATP by lanthascreen TR-FRET assay
[19] = molecular target: T5, Leucine-rich repeat serine/threonine-protein kinase 2; test: Inhibition of GST20-tagged human LRRK2 by cell based assay
[20] = molecular target: Dual specificity protein kinase CLK2 (Homo sapiens, UniProt P49760); test: Inhibition of CLK2 (unknown origin) by fluorescence based assay
Dual specificity protein kinase CLK2, sequence (P49760 whole entry): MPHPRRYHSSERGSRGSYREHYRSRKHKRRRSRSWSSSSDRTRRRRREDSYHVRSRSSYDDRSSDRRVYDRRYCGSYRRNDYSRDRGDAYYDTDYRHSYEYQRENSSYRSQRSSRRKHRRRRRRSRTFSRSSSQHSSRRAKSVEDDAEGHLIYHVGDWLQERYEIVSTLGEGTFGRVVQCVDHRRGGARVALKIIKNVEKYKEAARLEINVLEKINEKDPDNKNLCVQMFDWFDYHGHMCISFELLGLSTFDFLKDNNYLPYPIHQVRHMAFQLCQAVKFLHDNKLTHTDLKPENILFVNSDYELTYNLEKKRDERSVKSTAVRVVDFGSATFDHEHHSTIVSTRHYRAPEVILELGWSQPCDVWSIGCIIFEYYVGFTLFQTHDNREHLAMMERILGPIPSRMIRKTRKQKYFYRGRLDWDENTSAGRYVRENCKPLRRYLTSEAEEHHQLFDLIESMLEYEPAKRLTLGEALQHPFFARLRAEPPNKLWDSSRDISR

[21] = Mean residence time in rat by LC-MS/MS analysis; assay type: ADME; details: in vivo
[22] = Mean residence time in Beagle dog by LC-MS/MS analysis; assay type: ADME, Canis lupus familiaris; details: in vivo
[23] = Oral bioavailability in rat by LC-MS/MS analysis; assay type: ADME, organism-based; details: in vivo
[24] = Oral bioavailability in Beagle dog by LC-MS/MS analysis; assay type: ADME, organism-based, Canis lupus familiaris; details: in vivo
[25] = molecular target: T5, Leucine-rich repeat serine/threonine-protein kinase 2; test: Inhibition of recombinant N-terminal GST-tagged human LRRK2 expressed in Sf9 insect cells using H-RLGAWRFTTLRRARQGNTKQR-OH peptide as substrate
[26] = molecular target: T4, Leucine-rich repeat serine/threonine-protein kinase 2; test: Inhibition of recombinant N-terminal GST-tagged human G2019S LRRK2 expressed in Sf9 insect cells using H-RLGAWRFTTLRRARQGNTKQR-OH peptide as substrate
[27] = molecular target: T5, Leucine-rich repeat serine/threonine-protein kinase 2; test: Inhibition of GST-tagged recombinant human LRRK2 expressed in Insect cell using ERM as substrate measured after 1 hrs
[28] = molecular target: T4, Leucine-rich repeat serine/threonine-protein kinase 2; test: Inhibition of GST-tagged human LRRK2 G2019S mutant expressed in Insect cell using ERM as substrate measured after 1 hrs
[29] = molecular target: T1, von Hippel-Lindau disease tumor suppressor/Leucine-rich repeat serine/threonine-protein kinase 2 (Homo sapiens); test: PROTAC activity at VHL/LRRK2 in human PBMC cells assessed as reduction of protein degradation measured after 24 hrs by Western blot analysis relative to control; assay type: cell-based
[30] = test system: von Hippel-Lindau disease tumor suppressor/Leucine-rich repeat serine/threonine-protein kinase 2 (Homo sapiens), Q5S007+P40337 [G2019S]; test: PROTAC activity at VHL/LRRK2 G2019S mutant in human PBMC cells assessed as reduction of protein degradation measured after 24 hrs by Western blot analysis relative to control; assay type: cell-based
[31] = molecular target: T5, Leucine-rich repeat serine/threonine-protein kinase 2; test: Inhibition of human LRRK2 using LRRKtide as substrate measured after 1 hrs by caliper mobility shift assay
[32] = molecular target: T4, Leucine-rich repeat serine/threonine-protein kinase 2; test: Inhibition of human LRRK2 G2019S mutant using LRRKtide as substrate measured after 1 hrs by caliper mobility shift assay
[33] = Oral bioavailability in CD-1 mouse at 5 mg/kg; assay type: ADME, organism-based; details: in vivo
[34] = Half life in CD-1 mouse at 1 mg/kg, iv; assay type: ADME, organism-based; details: in vivo
[35] = molecular target: Leucine-rich repeat serine/threonine-protein kinase 2 (Mus musculus, UniProt Q5S006); test: Inhibition of mouse LRRK2
[36] = Half life in mouse; assay type: ADME, organism-based; details: in vivo

Compound `CNc1nc(Nc2ccc(C(=O)N3CCN(C[C@H]4CC[C@H](CSC(C)(C)[C@H](NC(=O)C5(F)CC5)C(=O)N5C[C@H](O)C[C@H]5C(=O)NCc5ccc(-c6scnc6C)cc5)CC4)CC3)cc2OC)ncc1Cl` has a T1/2 [1] of 1.2 h, a T1/2 [2] of 0.6 h and an Emax [3] of 82%. For the same compound, the Emax [4] was 81%, the IC50 [5] was 12.4 nM and the IC50 [6] was 24.3 nM. For the same compound, the EC50 [7] was 32 nM, the EC50 [8] was 14 nM and the bioavailability [9] was 15%.
With `CC(C)Nc1nc(Nc2ccc(C(=O)NCc3ccccc3)cc2)nc2ccsc12` the IC50 [10] was 14 nM and the IC50 [11] was 30 nM.
In the case of `Cc1c2c(nn1C1CCOCC1)OCCCNc1nc(ncc1Cl)N2`, the IC50 [12] is reported as ≤ 100 nM.
`CCNc1nc(Nc2cc(F)c(C(=O)NCCCCNc3cccc4c3C(=O)N(C3CCC(=O)NC3=O)C4=O)cc2OC)ncc1C(F)(F)F` (stereo not given) showed an IC50 [13] of 14.7 nM.
Compound `COc1cc(N2CCOCC2)ccc1Nc1ncc(Cl)c(Nc2ccccc2NS(C)(=O)=O)n1` has an IC50 [14] of 1.28 nM and an IC50 [15] of 1.85 nM.
`CNc1nc(Nc2ccc(C(=O)N3CCN(C[C@H]4CC[C@@H](CSC(C)(C)[C@H](NC(=O)C5(F)CC5)C(=O)N5C[C@H](O)C[C@H]5C(=O)NCc5ccc(-c6scnc6C)cc5)CC4)CC3)cc2OC)ncc1Cl` showed a T1/2 [1] of 2.7 h, a T1/2 [2] of 1.4 h and an Emax [3] of 59%. For the same compound, the Emax [4] was 90%, the EC50 [7] was 32 nM and the EC50 [8] was 7 nM.
Compound `CCNc1nc(Nc2cc(F)c(C(=O)N3CCOCC3)cc2OC)ncc1C(F)(F)F` has an IC50 [10] of 1 nM, a bioavailability [16] of 40% and a half-life [17] of 3.1 h.
Compound `Cn1cc(-c2cccc(C(=O)Nc3cc(N4CC[C@@H](C(C)(C)O)C4)cnc3C(F)(F)F)n2)cn1` has an IC50 [18] of 17 nM and an IC50 [19] of 21 nM.
Work on `C=CC(=O)Nc1cccc(Oc2nc(Nc3ccc(N4CCN(C)CC4)c(F)c3)nc3[nH]ccc23)c1` [ABIVERTINIB] yielded an IC50 [10] of 410 nM and an IC50 [11] of 177 nM.
`Cn1cc(-c2cccc(C(=O)Nc3cc(N4CCC(C(C)(C)O)C4)ncc3C(F)(F)F)n2)cn1` (stereo not given) gave an IC50 [18] of 1 nM, an IC50 [19] of 2.5 nM and an IC50 [20] of 63 nM. It also gave an MRT [21] of 5.2 h, an MRT [22] of 3.6 h and a bioavailability [23] of 16%. The bioavailability [24] was 43%.
In the case of `CC(C)(O)[C@@H]1CCN(c2cnc(C(F)(F)F)c(NC(=O)c3cccc(-c4cnn(CC(F)(F)F)c4)n3)c2)C1`, the IC50 [18] is reported as 10 nM and the IC50 [19] is reported as 0.7 nM.
Compound `CCC(Sc1ccc2nnc(-c3cccs3)n2n1)C(=O)N1CCCCC1` (stereo not given) has an IC50 [25] of 146 nM and an IC50 [26] of 75 nM.
Work on `Cn1cc(-c2c[nH]c3ncnc(N4CCOCC4)c23)cc1C#N` yielded an IC50 [27] of 13 nM and an IC50 [28] of 6.37 nM.
With `CNc1nc(Nc2ccc(C(=O)N3CCN(CCOCCOCCSC(C)(C)[C@H](NC(=O)C4(F)CC4)C(=O)N4C[C@H](O)C[C@H]4C(=O)NCc4ccc(-c5scnc5C)cc4)CC3)cc2OC)ncc1Cl` the Emax [29] was 51%, the Emax [30] was 58% and the T1/2 [1] was 5.1 h. For the same compound, the T1/2 [2] was 1.4 h.
For `CNc1nc(N/N=C/c2cccc3ccccc23)nc(Nc2cccc(C(F)(F)F)c2)n1`, the IC50 [31] was 424 nM and the IC50 [32] was 378 nM.
`COc1cc(N2CCOCC2)ccc1Nc1ncc(F)c(Nc2ccccc2NS(C)(=O)=O)n1` gave an IC50 [14] of 4.76 nM, an IC50 [15] of 6.87 nM and a bioavailability [33] of 133%. The half-life [34] was 1 h.
Work on `CCOc1cc(N2CCOCC2)ccc1Nc1ncc(F)c(Nc2ccccc2NS(C)(=O)=O)n1` yielded an IC50 [35] of 190 nM.
In the case of `COc1cc(C(=O)N2CCC(N3CCN(C)CC3)CC2)ccc1Nc1ncc2c(n1)N(C)c1ccccc1C(=O)N2C`, the half-life [36] is reported as 4.5 h.
`Cn1cc(-c2nc(C(=O)Nc3cnn(C4CCC4)c3)cs2)cn1` showed an IC50 [18] of 14 nM and an IC50 [19] of 271 nM.
